Counter-ions that a name gives are not always drawn.
What was measured:
PAK4 = target: T1, PAK4 (Homo sapiens, UniProt O96013); assay: PAK4 enzyme inhibition test; type: biochemical; details: Ki=IC50/(1+S/Km); 33P bound to MBP, [γ-33P]ATP, 30° C. for 20 minutes; read-out: Ki value of PAK4 inhibitory activity
T1 construct: purchased Invitrogen Corp. PV4212
Method: PAK4 Enzyme Inhibition Test
The preparation of a buffer solution was performed by mixing a trishydroxyaminomethane buffer solution (Tris buffer solution) (pH 7.5), DTT, Triton X-100, MgCl2, ethylene glycol bis(β-aminoethyl ether)-N,N,N′,N′-tetraacetic acid (EGTA), (3-glycerol phosphate, and sodium orthovanadate(V). A 40 μM [γ-^33P]ATP solution was used by diluting a 10 mM ATP solution and a commercially available [γ-^33P]ATP solution (manufactured by PerkinElmer, Inc., Code No. NEG-302H) with the buffer solution. A PAK4 solution was used by diluting commercially available PAK4 (manufactured by Invitrogen Corp., Catalog No. PV4212) with the buffer solution. A substrate solution was used by diluting MBP with the buffer solution. As for the preparation of a reaction solution, the buffer solution, the 40 μM [γ-^33P]ATP solution, the PAK4 solution, and the substrate solution were mixed at 4° C. to obtain a reaction solution.
(§1) PAK4 enzyme reaction was performed by adding 5 μL of a test compound solution prepared with 10% DMSO/90% injectable distilled water, and 45 μL of the reaction solution in a 1.5 mL microtube at 4° C. and reacting in the microtube at 30° C. for 20 minutes in a water bath incubator. After the reaction, a 10% aqueous TCA solution was added to each microtube while cooled to 4° C., and mixed to terminate the reaction. The resultant was left standing at 4° C. for 10 minutes and then centrifuged in a centrifuge, and the supernatant was discarded. Next, a 2% aqueous TCA solution was added, mixed, and then centrifuged in a centrifuge, and the supernatant was discarded. This washing operation was performed twice. After the washing, precipitates were dissolved in a 1 N aqueous NaOH solution, and the radioactivity was measured with a liquid scintillation counter.
The calculation of the inhibitory activity of the test compound against PAK4 was performed as a test compound concentration inhibiting 50% of the amount of ^33P bound to MBP (IC50 value) by using EXSUS (version 8.0.0 or version 8.0.1, manufactured by CAC Exicare Corp.).
(§2) The calculation of a Ki value was performed according to the following calculation expression. S means the concentration of ATP contained in the reaction solution, and Km means a Michaelis-Menten constant. Ki=IC50/(1+S/Km)

[1] = tested on: human large intestine cancer cell line (HCT-116); assay: Human large intestine cancer (HCT-116) cell growth inhibition test; type: cell-based; details: 72 h, HCT-116, culture for 3 days, sulforhodamine B absorbance
Method: Human Large Intestine Cancer (HCT-116) Cell Growth Inhibition Test
The measurement of a human large intestine cancer cell growth inhibitory effect was carried out by modifying the method of Simak et al. (Cancer Research, 69, 6208 (2009)).
A human large intestine cancer cell line (HCT-116) (manufactured by DS Pharma Biomedical Co., Ltd., Cat. No. EC91091005) was cultured in McCoy's 5a (manufactured by GIBCO/Thermo Fisher Scientific, Inc., REF. 16600-082) medium containing 10% FBS (manufactured by GIBCO/Thermo Fisher Scientific, Inc., REF. 10082-147) and 1% penicillin/streptomycin/amphotericin B (manufactured by GIBCO/Thermo Fisher Scientific, Inc., REF. 15240-096) and inoculated at 1.0×10^3 cells/well in a 96-well plate (manufactured by Corning Inc., REF. 353072). After overnight culture in a carbon dioxide incubator, it was replaced with a fresh McCoy's 5a medium containing 10% FBS on the next day, and a test compound dissolved in DMSO (manufactured by Wako Pure Chemical Industries, Ltd., Code No. 043-07216) (final DMSO concentration: 0.1%) was added and left standing in a carbon dioxide incubator. After culturing for 3 days, the absorbance of each well was measured by using In Vitro Toxicology Assay Kit Sulforhodamine B based (manufactured by Sigma-Aldrich Co. LLC., Pcode 1001910706).
The rate of inhibition of cell growth at each concentration was calculated from the test compound concentration and the absorbance of sulforhodamine B, and the concentration of the test compound necessary for inhibiting 50% of cell growth (IC50 value) was calculated by using EXSUS (version 8.0.0 or version 8.0.1, manufactured by CAC Exicare Corp.).

CDK2 = target: T2, CDK2 (Homo sapiens, UniProt P24941); assay: CDK2 enzyme inhibition test; type: biochemical; details: Ki=IC50/(1+S/Km); 33P bound to MBP, [γ-33P]ATP, 30° C. for 20 minutes; read-out: Ki value of CDK2 inhibitory activity
T2 construct: purchased Invitrogen Corp. PV3267
Method: CDK2 Enzyme Inhibition Test
The preparation of a buffer solution was performed by mixing a HEPES buffer solution (pH 7.4), DTT, Triton X-100, and MgCl2. A 500 μM [γ-^33P]ATP solution was used by diluting a 10 mM ATP solution and a commercially available [γ-^33P]ATP solution (manufactured by PerkinElmer, Inc., Code No. NEG-302H) with the buffer solution. A CDK2 solution was used by diluting commercially available CDK2 (manufactured by Invitrogen Corp., Catalog No. PV3267) with the buffer solution. A substrate solution was used by diluting MBP with the buffer solution. As for the preparation of a reaction solution, the buffer solution, the 500 μM [γ-^33P]ATP solution, the CDK2 solution, and the substrate solution were mixed at 4° C. to obtain a reaction solution.
as §1, with “CDK2” for “PAK4”, “mixed thereto,” for “mixed,”
The calculation of the inhibitory activity of the test compound against CDK2 was performed as a test compound concentration inhibiting 50% of the amount of ^33P bound to MBP (IC50 value) by using EXSUS (version 8.0.0 or version 8.0.1, manufactured by CAC Exicare Corp.).
as §2

CDK7 = target: T3, CDK7 (Homo sapiens, UniProt P50613); assay: CDK7 enzyme inhibition test; type: biochemical; details: Ki=IC50/(1+S/Km); 33P bound to MBP, [γ-33P]ATP, 30° C. for 20 minutes; read-out: Ki value of CDK7 inhibitory activity
T3 construct: purchased Carna Biosciences, Inc. 04-108
Method: CDK7 Enzyme Inhibition Test
The preparation of a buffer solution was performed by mixing a N-2-hydroxyethylpiperazine-N′-2-ethanesulfonic acid buffer solution (HEPES buffer solution) (pH 7.4), dithiothreitol (DTT), Triton X-100, and magnesium chloride (MgCl2). A 500 μM [γ-^33P]ATP solution was used by diluting a 10 mM ATP solution and a commercially available [γ-^33P]ATP solution (manufactured by PerkinElmer, Inc., Code No. NEG-302H) with the buffer solution. A CDK7 solution was used by diluting commercially available CDK7 (manufactured by Carna Biosciences, Inc., Catalog No. 04-108) with the buffer solution. A substrate solution was used by diluting myelin basic protein (MBP) with the buffer solution. As for the preparation of a reaction solution, the buffer solution, the 500 μM [γ-^33P]ATP solution, the CDK7 solution, and the substrate solution were mixed at 4° C. to obtain a reaction solution.
CDK7 enzyme reaction was performed by adding 5 μL of a test compound solution prepared with 10% dimethyl sulfoxide (DMSO)/90% injectable distilled water, and 45 μL of the reaction solution to a 1.5 mL microtube at 4° C. and reacting in the microtube at 30° C. for 20 minutes in a water bath incubator. After the reaction, a 10% aqueous trichloroacetic acid (TCA) solution was added to each microtube while cooled to 4° C., and mixed to terminate the reaction. The resultant was left standing at 4° C. for 10 minutes and then centrifuged in a centrifuge, and the supernatant was discarded. Next, a 2% aqueous TCA solution was added, mixed, and then centrifuged in a centrifuge, and the supernatant was discarded. This washing operation was performed twice. After the washing, precipitates were dissolved in a 1 N aqueous sodium hydroxide (NaOH) solution, and the energy quantity (radioactivity) of the reaction product was measured with a liquid scintillation counter.
The calculation of the inhibitory activity of the test compound against CDK7 was performed as a test compound concentration inhibiting 50% of the amount of ^33P bound to MBP (IC50 value) by using EXSUS (version 8.0.0 or version 8.0.1, manufactured by CAC Exicare Corp.).
as §2

T3 sequence (P50613 whole entry): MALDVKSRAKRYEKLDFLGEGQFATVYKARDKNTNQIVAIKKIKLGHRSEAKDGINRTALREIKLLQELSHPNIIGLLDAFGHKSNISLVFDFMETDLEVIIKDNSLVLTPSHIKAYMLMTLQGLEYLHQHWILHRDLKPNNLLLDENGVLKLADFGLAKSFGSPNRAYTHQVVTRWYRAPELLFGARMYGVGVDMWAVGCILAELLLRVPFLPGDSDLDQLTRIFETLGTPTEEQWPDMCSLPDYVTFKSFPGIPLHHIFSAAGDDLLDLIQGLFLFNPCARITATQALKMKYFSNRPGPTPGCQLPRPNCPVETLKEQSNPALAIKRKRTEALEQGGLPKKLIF
T3 sequence (P51946 whole entry partner): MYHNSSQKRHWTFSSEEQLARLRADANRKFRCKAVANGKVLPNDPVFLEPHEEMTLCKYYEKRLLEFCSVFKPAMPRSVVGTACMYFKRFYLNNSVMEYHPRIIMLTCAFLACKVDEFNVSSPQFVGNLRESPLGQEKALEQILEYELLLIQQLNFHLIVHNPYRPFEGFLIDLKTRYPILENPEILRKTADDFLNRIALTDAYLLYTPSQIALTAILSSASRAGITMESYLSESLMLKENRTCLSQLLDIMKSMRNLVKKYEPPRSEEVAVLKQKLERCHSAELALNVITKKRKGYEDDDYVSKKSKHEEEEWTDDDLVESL
T3 sequence (P51948 whole entry partner): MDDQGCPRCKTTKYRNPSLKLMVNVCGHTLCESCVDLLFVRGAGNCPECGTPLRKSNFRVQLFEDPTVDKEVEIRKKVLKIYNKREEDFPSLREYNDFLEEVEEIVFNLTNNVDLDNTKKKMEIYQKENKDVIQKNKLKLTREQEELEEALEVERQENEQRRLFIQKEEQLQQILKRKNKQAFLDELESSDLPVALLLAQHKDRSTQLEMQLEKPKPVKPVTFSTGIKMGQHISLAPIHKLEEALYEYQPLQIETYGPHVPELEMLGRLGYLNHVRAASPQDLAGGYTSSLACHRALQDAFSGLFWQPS
T1 sequence (O96013 whole entry): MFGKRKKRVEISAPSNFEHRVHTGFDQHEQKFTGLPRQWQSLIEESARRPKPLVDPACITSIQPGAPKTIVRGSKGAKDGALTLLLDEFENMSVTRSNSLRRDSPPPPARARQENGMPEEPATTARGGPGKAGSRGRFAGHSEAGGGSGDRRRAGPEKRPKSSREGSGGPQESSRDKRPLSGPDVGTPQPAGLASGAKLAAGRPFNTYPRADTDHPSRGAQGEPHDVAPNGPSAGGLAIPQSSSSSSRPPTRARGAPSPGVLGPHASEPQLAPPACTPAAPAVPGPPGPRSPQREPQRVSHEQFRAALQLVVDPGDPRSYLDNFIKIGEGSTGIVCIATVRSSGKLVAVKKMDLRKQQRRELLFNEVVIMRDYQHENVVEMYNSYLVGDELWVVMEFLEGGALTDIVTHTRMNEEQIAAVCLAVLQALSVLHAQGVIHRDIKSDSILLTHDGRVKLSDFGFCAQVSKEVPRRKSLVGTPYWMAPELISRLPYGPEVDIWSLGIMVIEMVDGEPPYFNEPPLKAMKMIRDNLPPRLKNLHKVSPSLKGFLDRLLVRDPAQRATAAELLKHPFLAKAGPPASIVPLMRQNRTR

SMILES	Ki (PAK4) [nM]	IC50 [1] [nM]	Ki (CDK2) [nM]	Ki (CDK7) [nM]
CC(C)(O)C[C@@H](NC(=O)N1Cc2c(NC(=O)C3([Si](C)(C)C)CC3)n[nH]c2C1(C)C)c1ccccc1 [III-298, (R)—N-(3-Hydroxy-3-methyl-1-phenylbutyl)-6,6-dimethyl-3-[1-(trimethylsilyl)cyclopropanecarboxamido]-4,6-dihydropyrrolo[3,4-c]pyrazole-5(1H)-carboxamide]	≥ 500	≤ 500	≥ 1000	≤ 50
CC1(C)c2[nH]nc(NC(=O)C3([Si](C)(C)C)CCC3)c2CN1C(=O)NC(CO)c1ccccn1 (centres unmarked) [IV-534, N-[2-Hydroxy-1-(pyridin-2-yl)ethyl]-6,6-dimethyl-3-[1-(trimethylsilyl)cyclobutanecarboxamido]-4,6-dihydropyrrolo[3,4-c]pyrazole-5(1H)-carboxamide]	≥ 500	≤ 500	≥ 1000	≤ 50
CC(C)C(NC(=O)N1Cc2c(NC(=O)C3([Si](C)(C)C)CCC3)n[nH]c2C1(C)C)C(C)(C)CO (centres unmarked) [IV-822, N-(1-Hydroxy-2,2,4-trimethylpentan-3-yl)-6,6-dimethyl-3-[1-(trimethylsilyl)cyclobutanecarboxamido]-4,6-dihydropyrrolo[3,4-c]pyrazole-5(1H)-carboxamide]	≥ 500	≤ 500	≥ 1000	≤ 50
CC(C)(O)C[C@@H](NC(=O)N1Cc2c(NC(=O)C3([Si](C)(C)C)CCC3)n[nH]c2C1(C)C)c1ccccc1F [IV-883, (R)—N-[1-(2-Fluorophenyl)-3-hydroxy-3-methylbutyl]-6,6-dimethyl-3-[1-(trimethylsilyl)cyclobutanecarboxamido]-4,6-dihydropyrrolo[3,4-c]pyrazole-5(1H)-carboxamide]	≥ 500	≤ 500	≥ 1000	–

Now from value to compound:

Ki (PAK4) [nM]	IC50 [1] [nM]	Ki (CDK2) [nM]	Ki (CDK7) [nM]	SMILES
≥ 500	≤ 500	≥ 1000	≤ 50	CC[Si](C)(C)C(C)(C)C(=O)Nc1n[nH]c2c1CN(C(=O)N[C@H](CO)c1ccccc1)C2(C)C [II-116, (S)-3-[2-(Ethyldimethylsilyl)-2-methylpropanamido]-N-(2-hydroxy-1-phenylethyl)-6,6-dimethyl-4,6-dihydropyrrolo[3,4-c]pyrazole-5(1H)-carboxamide]
≥ 500	≤ 500	≥ 1000	≤ 50	CC(C)(CO)C(NC(=O)N1Cc2c(NC(=O)C3([Si](C)(C)C)CC3)n[nH]c2C1(C)C)c1ccccc1 (centres unmarked) [III-353, N-(3-Hydroxy-2,2-dimethyl-1-phenylpropyl)-6,6-dimethyl-3-[1-(trimethylsilyl)cyclopropanecarboxamido]-4,6-dihydropyrrolo[3,4-c]pyrazole-5(1H)-carboxamide]
≥ 500	–	≥ 1000	–	CC1(C)c2[nH]nc(NC(=O)C3([Si](C)(C)C)CCC3)c2CN1C(=O)N[C@@H](CO)c1ccccc1 [IV-115, (R)—N-(2-Hydroxy-1-phenylethyl)-6,6-dimethyl-3-[1-(trimethylsilyl)cyclobutanecarboxamido]-4,6-dihydropyrrolo[3,4-c]pyrazole-5(1H)-carboxamide]
≥ 500	–	≥ 1000	≤ 50	CC1(C)c2[nH]nc(NC(=O)C3([Si](C)(C)C)CCC3)c2CN1C(=O)N[C@H](C(=O)O)c1ccccc1 [IV-403 (sodium salt), Sodium (S)-2-{6,6-dimethyl-3-[1-(trimethylsilyl)cyclobutanecarboxamido]-1,4,5,6-tetrahydropyrrolo[3,4-c]pyrazole-5-carboxamido}-2-phenylacetate]
≥ 500	≤ 500	≥ 1000	≤ 50	CC(O)CNC(=O)N1Cc2c(NC(=O)C3([Si](C)(C)C)CCC3)n[nH]c2C1(C)C (centres unmarked) [IV-442, N-(2-Hydroxypropyl)-6,6-dimethyl-3-[1-(trimethylsilyl)cyclobutanecarboxamido]-4,6-dihydropyrrolo[3,4-c]pyrazole-5(1H)-carboxamide]
